The values that follow come from patent US9539298B2, “Lissencephaly therapeutic agent” (OSAKA CITY UNIVERSITY, priority 2010, dated 2017).

Molecules are shown by their SMILES.

For assay [1], the system named is fibroblasts established from LIS1 heterozygous mice (MEF). Briefly: Change in intracellular protein localization by SNJ-1945 (immunocytochemistry). Format: cell-based, mouse. The note with it: 200 μM, 2 hours. As for the experimental part: A LIS1 gene hetero-deficient mice group and a wild-type mice (12.5- to 14.5-day-old embryos) group each consisting of five mice were prepared, and fibroblasts (MEF; mouse embryonic fibroblast) were established from each group in the same manner as above (more specifically, fibroblasts were established by grouping the same gene type). Using the cells, immunocytochemistry was performed as follows. The influence of SNJ-1945 on intracellular protein localization in each cell was analyzed. First, a slide glass (24×24 mm; Matsunami Glass Ind., Ltd.) washed beforehand with 0.1 N hydrochloric acid was placed on a 6-well plate (Nunc), and MEF cells were seeded in an amount of 1.0×10^5 cells per well in a D-MEM culture solution (containing 10% fetal bovine blood serum; Wako Pure Chemical Ind. Ltd.). Subsequently, the 6-well plate was cultured overnight at 37° C. under 5% CO2, and SNJ-1945 was added thereto so that the final concentration became 200 μM. The incubation was performed for another 2 hours under the same conditions.
As a control experiment, the same experiment was performed by adding 1% dimethylsulfoxide (DMSO). After washing with phosphate buffer (PBS), the MEF cells were immobilized using 4% paraformaldehyde (Wako, 162-16065) (at room temperature, for 15 minutes). […] After incubation, the cells were washed well with PBS, and embedded using glycerol (Merck) for fluorescence microscope observation. […]
After careful observation using a confocal laser microscope (TCS-SP5, Leica), the intracellular locations of the individual factors in MEF cells under varying conditions are classified into “cells clustered around the nucleus” and “cells distributed to the entire cytoplasm.” For each cell group, 10 samples, each of which consists of 10 arbitrarily extracted cells, i.e., 100 cells in total for each group, were evaluated, and the average value±standard deviation was calculated. […]

Assay [2] has as its target m-calpain (derived from porcine kidney) (Sus scrofa, UniProt I3LQD3). Briefly: Measurement of inhibitory activity against m-calpain. It is filed as biochemical. As to conditions: casein substrate, 30° C., 60 minutes; read-out: enzyme inhibitory activities (μM) m-calpain. As to the method: More specifically, 200 μL of a reaction solution containing 0.5 mg/mL casein, 50 mM Tris-HCl buffer (pH 7.4), 20 mM dithiothreitol and 1.0 nmol μ-calpain (derived from human red blood cells, Cosmo Bio Co., Ltd.) or m-calpain (derived from porcine kidney, Cosmo Bio Co., Ltd.) was added to individual 2.5 μL portions of DMSO solution containing a varying concentration of a test sample in a 96-well plate. Then, 50 μL of 20 mM aqueous calcium chloride was added thereto, and reaction was performed at 30° C. for 60 minutes. 100 μL of the reaction solution was transferred to another 96-well plate, and purified water (50 μL) and 50% aqueous solution (100 μL) of Protein Assay Dye Reagent (available from Bio-Rad Laboratories, Inc.; catalogue No. 500-600) were added thereto. […] The absorbance of a reaction mixture prepared in the same manner as mentioned above, except that a DMSO solution containing no sample was used as a control value; and the absorbance of a reaction mixture prepared in the same manner as mentioned above, except that a 1 mM aqueous EDTA solution (50 μL) was used in place of 20 mM aqueous calcium chloride, was used as a blank value. […] Inhibition rate (%){1−(measured value−blank test value)/(control value−blank test value)}×100

Chain of m-calpain (derived from porcine kidney) (I3LQD3 entry or part of it): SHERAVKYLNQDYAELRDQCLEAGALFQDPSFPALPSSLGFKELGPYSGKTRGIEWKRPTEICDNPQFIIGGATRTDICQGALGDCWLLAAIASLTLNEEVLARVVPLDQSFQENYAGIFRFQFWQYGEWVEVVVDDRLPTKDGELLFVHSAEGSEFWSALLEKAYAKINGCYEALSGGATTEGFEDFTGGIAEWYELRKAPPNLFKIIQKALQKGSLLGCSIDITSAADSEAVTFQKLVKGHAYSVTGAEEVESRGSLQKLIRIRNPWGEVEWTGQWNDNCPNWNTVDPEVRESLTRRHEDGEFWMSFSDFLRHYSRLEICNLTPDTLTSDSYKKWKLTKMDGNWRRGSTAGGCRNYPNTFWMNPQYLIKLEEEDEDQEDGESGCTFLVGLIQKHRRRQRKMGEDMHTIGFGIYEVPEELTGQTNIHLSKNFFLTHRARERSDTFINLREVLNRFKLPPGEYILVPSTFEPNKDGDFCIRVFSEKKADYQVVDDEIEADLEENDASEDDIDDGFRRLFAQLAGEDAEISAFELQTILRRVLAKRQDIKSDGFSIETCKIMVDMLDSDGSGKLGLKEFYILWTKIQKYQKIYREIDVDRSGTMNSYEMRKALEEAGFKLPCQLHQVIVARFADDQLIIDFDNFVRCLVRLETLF
Chain of m-calpain (derived from porcine kidney) (P04574 whole entry, further chain): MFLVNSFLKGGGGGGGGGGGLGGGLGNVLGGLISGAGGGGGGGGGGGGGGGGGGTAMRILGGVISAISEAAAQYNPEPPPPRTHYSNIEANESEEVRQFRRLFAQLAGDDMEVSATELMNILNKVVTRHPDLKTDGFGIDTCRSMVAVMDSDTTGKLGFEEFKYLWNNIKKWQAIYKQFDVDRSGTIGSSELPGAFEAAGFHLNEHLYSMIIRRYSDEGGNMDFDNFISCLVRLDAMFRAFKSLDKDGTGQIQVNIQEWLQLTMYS

Take `COCCOCCOC(=O)N[C@@H](CC(C)C)C(=O)N[C@@H](Cc1ccccc1)C(=O)C(=O)NC1CC1` [compound 17, ((1S)-1-((((1S)-1-Benzyl-2,3-dioxo-3-(cyclopropylamino)propyl)amino)carbonyl)-3-methylbutyl)carbamic acid 5-methoxy-3-oxapentyl ester]: in assay [1] (FIG. 2), the “LIS1 amount around the centrosome (intracellular localization)” value was “the LIS1 amount can be recovered”. For the same molecule, the “cytoplasmatic dynein amount / localization” value in assay [1] (FIG. 3) is given as “the cytoplasmatic dynein amount can also be recovered”. For the same molecule, the β-COP distribution result in assay [1] (FIG. 4) is on record as “the distribution is normalized”. The IC50 in assay [2] is 0.1 µM.
